Measured values from patent US8802597B2, “Herbicidal pyrimidines” (E I du Pont de Nemours and Company, priority 2003, dated 2014).

Experiments:
Format in all cases: in vivo
[1] = tested on: corn (ZEAMD, Zea mays L. cv. ‘Pioneer 33G26’); test: Test H mixtures of compound 1 with diflufenzopyr; details: foliage spray
Text: (§1) This test evaluated the effect of mixtures of compound 1 with diflufenzopyr on several plant species. Seeds of test plants consisting of large crabgrass (DIGSA, Digitaria sanguinalis (L.) Scop.), lambsquarters (CHEAL, Chenopodium album L.), redroot pigweed (AMARE, Amaranthus retroflexus L.), cocklebur (XANST, Xanthium strumarium L.), barnyardgrass (ECHCG; Echinochloa crus-galli (L.) Beauv.), corn (ZEAMD, Zea mays L. cv. ‘Pioneer 33G26’), scarlet (red) morningglory (IPOCO, Ipomoea coccinea L.), giant foxtail (SETFA, Setaria faberi Herrm.) and velvetleaf (ABUTH, Abutilon theophrasti Medik.) were planted in pots containing Redi-Earth® planting medium (Scotts Company, 14111 Scottslawn Road, Marysville, Ohio 43041) comprising spaghnum peat moss, vermiculite, wetting agent and starter nutrients. Seeds of small-seeded species were planted about 1 cm deep; larger seeds were planted about 2.5 cm deep. Plants were grown in a greenhouse using supplemental lighting to maintain a photoperiod of about 14 hours; daytime and nighttime temperatures were about 25-30° C. and 22-25° C., respectively. Balanced fertilizer was applied through the watering system. The plants were grown for 7 to 11 days so that at time of treatment the plants ranged in height from 2 to 18 cm (1- to 4-leaf stage). Treatments consisted of Compound 1 and diflufenzopyr alone and in combination, suspended or dissolved in an aqueous solvent comprising glycerin and Tween nonionic surfactant and applied as a foliage spray using a volume of 541 L/ha. Each treatment was replicated four times. […] Treated plants and controls were maintained in the greenhouse and watered as needed with care to not wet the foliage for the first 24 hours after treatment. The effects on the plants approximately 3 weeks after treatment were visually compared to untreated controls. Plant response ratings were calculated as the means of the four replicates, based on a scale of 0 to 100 where 0 is no effect and 100 is complete control. Colby's Equation was used to determine the herbicidal effects expected from the mixtures. Colby's Equation (Colby, S. R. “Calculating Synergistic and Antagonistic Responses of Herbicide Combinations,” Weeds, 15(1), pp 20-22 (1967)) calculates the expected additive effect of herbicidal mixtures, and for two active ingredients is of the form: Pa+b=Pa+Pb−(PaPb/100) wherein Pa+b is the percentage effect of the mixture expected from additive contribution of the individual components, • Pa is the observed percentage effect of the first active ingredient at the same use rate as in the mixture, and • Pb is the observed percentage effect of the second active ingredient at the same use rate as in the mixture.

[2] = tested on: scarlet (red) morningglory (IPOCO, Ipomoea coccinea L.); test: Test H mixtures of compound 1 with diflufenzopyr; details: foliage spray
Text: as §1

[3] = tested on: redroot pigweed (AMARE, Amaranthus retroflexus L.); test: Test H mixtures of compound 1 with diflufenzopyr; details: foliage spray
Text: as §1

[4] = tested on: large crabgrass (DIGSA, Digitaria sanguinalis (L.) Scop.); test: Test H mixtures of compound 1 with diflufenzopyr; details: foliage spray
Text: as §1

[5] = tested on: cocklebur (XANST, Xanthium strumarium L.); test: Test H mixtures of compound 1 with diflufenzopyr; details: foliage spray
Text: as §1

[6] = tested on: giant foxtail (SETFA, Setaria faberi Herrm.); test: Test H mixtures of compound 1 with diflufenzopyr; details: foliage spray
Text: as §1

[7] = tested on: velvetleaf (ABUTH, Abutilon theophrasti Medik.); test: Test H mixtures of compound 1 with diflufenzopyr; details: foliage spray
Text: as §1

[8] = tested on: lambsquarters (CHEAL, Chenopodium album L.); test: Test H mixtures of compound 1 with diflufenzopyr; details: foliage spray
Text: as §1

[9] = tested on: barnyardgrass (ECHCG; Echinochloa crus-galli (L.) Beauv.); test: Test H mixtures of compound 1 with diflufenzopyr; details: foliage spray
Text: as §1

[10] = tested on: lambsquarters (CHEAL; Chenopodium album); test: Test I mixtures of compound 9 with metsulfuron-methyl and chlorsulfuron-metsulfuron-methyl (5:1); details: applied alone
Text: (§2) This test evaluated the effect of mixtures of compound 9 with metsulfuron-methyl and with a 5:1 by weight combination of chlorsulfuron and metsulfuron-methyl on several plant species. Seeds of test plants consisting of wheat (TRZAW; Triticum aestivum), wild buckwheat, (POLCO; Polygonum convolvulus), redroot pigweed (AMARE; Amaranthus retroflexus), wild mustard (SINAR; Sinapis arvensis), catchweed bedstraw (GALAP; Galium aparine), Russian thistle (SASKR; Salsola kali), common chickweed (STEME; Stellaria media), kochia (KCHSC; Kochia scoparia), and lambsquarters (CHEAL; Chenopodium album) were planted into a blend of loam soil and sand. Plants were grown in a greenhouse using supplemental lighting to maintain a photoperiod of about 14 hours; daytime and nighttime temperatures were about 23° C. and 16° C., respectively. Balanced fertilizer was applied through the watering system. The plants were grown for 10 to 23 days so that at time of treatment the plants ranged from 2- to 8-leaf stage. Treatments consisted of Compound 9, metsulfuron-methyl, and chlorsulfuron-metsulfuron-methyl (5:1) alone and in combination. The treatments were formulated in a non-phytotoxic solvent mixture which included a surfactant and applied as a foliage spray using a volume of 280-458 L/ha. Each treatment was replicated three times. […] Treated plants and controls were maintained in the greenhouse and watered as needed with care to not wet the foliage for the first 24 hours after treatment. The effects on the plants approximately 17 days after treatment were visually compared to untreated controls. Plant response ratings were calculated as the means of the three replicates, based on a scale of 0 to 100 where 0 is no effect and 100 is complete control. Colby's Equation was used to determine the herbicidal effects expected from the mixtures.

[11] = tested on: redroot pigweed (AMARE; Amaranthus retroflexus); test: as above; details: applied alone
Text: as §2

[12] = tested on: wild buckwheat (POLCO; Polygonum convolvulus); test: as above; details: applied alone
Text: as §2

[13] = tested on: common chickweed (STEME; Stellaria media); test: as above; details: applied alone
Text: as §2

[14] = tested on: catchweed bedstraw (GALAP; Galium aparine); test: as above; details: applied alone
Text: as §2

[15] = tested on: kochia (KCHSC; Kochia scoparia); test: as above; details: applied alone
Text: as §2

[16] = tested on: wheat (TRZAW; Triticum aestivum); test: as above; details: Metsulfuron-Methyl series, applied alone
Text: as §2

[17] = tested on: wild mustard (SINAR; Sinapis arvensis); test: as above; details: applied alone
Text: as §2

[18] = tested on: Russian thistle (SASKR; Salsola kali); test: as above; details: applied alone
Text: as §2

SMILES: C/C(=N\NC(=O)Nc1cc(F)cc(F)c1)c1ncccc1C(=O)O [Diflufenzopyr, diflufenzopyr, reference compound]
- Obsd. observed effect (0 to 100 scale) ([1]; Diflufenzopyr 12 g a.i./ha): 0
- Obsd. observed effect (0 to 100 scale) ([1]; Diflufenzopyr 25 g a.i./ha): 0
- Obsd. observed effect (0 to 100 scale) ([1]; Diflufenzopyr 50 g a.i./ha): 0
- Obsd. observed effect (0 to 100 scale) ([2]; Diflufenzopyr 12 g a.i./ha): 77
- Obsd. observed effect (0 to 100 scale) ([2]; Diflufenzopyr 25 g a.i./ha): 83
- Obsd. observed effect (0 to 100 scale) ([2]; Diflufenzopyr 50 g a.i./ha): 82
- Obsd. observed effect (0 to 100 scale) ([3]; Diflufenzopyr 12 g a.i./ha): 73
- Obsd. observed effect (0 to 100 scale) ([3]; Diflufenzopyr 25 g a.i./ha): 91
- Obsd. observed effect (0 to 100 scale) ([3]; Diflufenzopyr 50 g a.i./ha): 95
- Obsd. observed effect (0 to 100 scale) ([4]; Diflufenzopyr 12 g a.i./ha): 0
- Obsd. observed effect (0 to 100 scale) ([4]; Diflufenzopyr 25 g a.i./ha): 1
- Obsd. observed effect (0 to 100 scale) ([4]; Diflufenzopyr 50 g a.i./ha): 8
- Obsd. observed effect (0 to 100 scale) ([5]; Diflufenzopyr 12 g a.i./ha): 43
- Obsd. observed effect (0 to 100 scale) ([5]; Diflufenzopyr 25 g a.i./ha): 60
- Obsd. observed effect (0 to 100 scale) ([5]; Diflufenzopyr 50 g a.i./ha): 68
- Obsd. observed effect (0 to 100 scale) ([6]; Diflufenzopyr 12 g a.i./ha): 41
- Obsd. observed effect (0 to 100 scale) ([6]; Diflufenzopyr 25 g a.i./ha): 58
- Obsd. observed effect (0 to 100 scale) ([6]; Diflufenzopyr 50 g a.i./ha): 59
- Obsd. observed effect (0 to 100 scale) ([7]; Diflufenzopyr 12 g a.i./ha): 50
- Obsd. observed effect (0 to 100 scale) ([7]; Diflufenzopyr 25 g a.i./ha): 78
- Obsd. observed effect (0 to 100 scale) ([7]; Diflufenzopyr 50 g a.i./ha): 68
- Obsd. observed effect (0 to 100 scale) ([8]; Diflufenzopyr 12 g a.i./ha): 61
- Obsd. observed effect (0 to 100 scale) ([8]; Diflufenzopyr 25 g a.i./ha): 76
- Obsd. observed effect (0 to 100 scale) ([8]; Diflufenzopyr 50 g a.i./ha): 80
- Obsd. observed effect (0 to 100 scale) ([9]; Diflufenzopyr 12 g a.i./ha): 5
- Obsd. observed effect (0 to 100 scale) ([9]; Diflufenzopyr 25 g a.i./ha): 10
- Obsd. observed effect (0 to 100 scale) ([9]; Diflufenzopyr 50 g a.i./ha): 23

SMILES: COC(=O)c1ccccc1S(=O)(=O)NC(=O)Nc1nc(C)nc(OC)n1 [Metsulfuron-Methyl]
- CHEAL Obsd. (observed effect) ([10]; 4 g a.i./ha): 0
- CHEAL Obsd. (observed effect) ([10]; 8 g a.i./ha): 0
- AMARE Obsd. (observed effect) ([11]; 4 g a.i./ha): 0
- AMARE Obsd. (observed effect) ([11]; 8 g a.i./ha): 0
- POLCO Obsd. (observed effect) ([12]; 4 g a.i./ha): 0
- POLCO Obsd. (observed effect) ([12]; 8 g a.i./ha): 0
- STEME Obsd. (observed effect) ([13]; 4 g a.i./ha): 0
- STEME Obsd. (observed effect) ([13]; 8 g a.i./ha): 0
- GALAP Obsd. (observed effect) ([14]; 4 g a.i./ha): 0
- GALAP Obsd. (observed effect) ([14]; 8 g a.i./ha): 0
- KCHSC Obsd. (observed effect) ([15]; 4 g a.i./ha): 0
- KCHSC Obsd. (observed effect) ([15]; 8 g a.i./ha): 0
- TRZAW Obsd. (observed effect) ([16]; 4 g a.i./ha): 0
- TRZAW Obsd. (observed effect) ([16]; 8 g a.i./ha): 0
- SINAR Obsd. (observed effect) ([17]; 4 g a.i./ha): 0
- SINAR Obsd. (observed effect) ([17]; 8 g a.i./ha): 0
- SASKR Obsd. (observed effect) ([18]; 4 g a.i./ha): 0
- SASKR Obsd. (observed effect) ([18]; 8 g a.i./ha): 0
